The values below come from US20050153872A1, “Methods and compositions for the treatment of infection” (priority 2004, published 2005).

For orientation: ED50 means the midpoint of the dose-response relation. The MIC50 is an inhibitory concentration at the 50% level, which refers to growth in some studies and to a panel of isolates in others. As a reminder, the MIC90 is the lowest concentration that inhibits either 90% of growth or 90% of the strains tested, depending on the study.

In experiment [1] the test system is Enterococcus faecalis ATCC 700802. Description: In vivo protection of infected mice. Further details: species or system Kungming mice. As to the method:
(§1) The following experiments were performed by Pharmacology Lab, National Sichuan antibiotic industril institute, Chengdu, Sichuan.
(§2) The agents described above were diluted with sterilized water to final concentrations of 10 mg/L, 5 mg/Land 2.5 mg/L.
(§3) Staphylococcus aureus ATCC BAA-42(MRSA) and enterococcus faecalis ATCC 700802 were used as control strains.
(§4) 170 mice (Kungming mice: 18˜22 g, 85 males and 85 females) were randomly divided into four groups and injected with a fatal dosage of staphylococci, enterococcus and E. coli intraperitoneally. […] Mice were inspected every 24 hours for 7-14 days. Dead mice were counted as positive results. The results are depicted in Table 3 and FIGS. 4 and 5A-B.

The subject of experiment [2] is Staphylococcus aureus MRSA 02-18. Kind of experiment: In vivo protection of infected mice. Details: species or system Kungming mice. As to the method: as §1, §2, §3, §4
The test system of experiment [3] is Staphylococcus aureus MRSA BAA-42. Kind of experiment: In vivo protection of infected mice. Further details: species or system Kungming mice. The procedure:
as §1, §2, §3, §4

Experiment [4] shares this test system. Description: microbe, parasite or virus in culture. Type of experiment: cell-based.
Experiment [5] deals with Staphylococcus aureus ATCC 29213. Description: MIC against challenge strain (Table 3). In kind it is cell-based.
For experiment [6], the system named is Escherichia coli 02-1-65. Kind of experiment: In vivo protection of infected mice. Details: species or system Kungming mice. To be noted: i.p. infection 3.3 × 10^5 cfu/ml. As to the method: as §1
(§5) The agents described above were diluted with sterilized water to final concentrations of 10 mg/L, 5 mg/Land 2.5 mg/L. […]
as §4

Experiment [7] deals with Staphylococcus aureus ATCC 29213. Description: In vivo protection of infected mice. Details: species or system Kungming mice. The conditions noted are these: i.p. infection 3.6 × 10^5 cfu/ml. The procedure:
as §1, §5, §4

The next experiment deals with Acenetobactor (20). Kind of experiment: In vitro antibacterial activity (MIC), clinical isolates. In kind it is cell-based. As to the method:
(§6) The following experiments were performed by Lab. of Pharmacology, National Sichuan antibiotic industril institute, Chengdu, Sichuan.
(§7) The following agents were used to test the in vitro activity of Ph-SA:
(§8) All the bacterial strains used in the experiments were clinical isolates collected from Sichuan and Beijing in 2002 and identified by West China Hospital, Sichuan University and Chongqing University of Medical Sciences with API system. The following strains were used in the experiments detailed below: Staphylococcus aureus 168 strains (MRSA 80 strains and MSSA 88 strains) Staphylococcus epidermidis 46 strains (MRSE 25 strains and MSSE 21 strains), Enterococcus 20 strains, and Acenetobactor 20 strains. Staphylococcus aureus ATCC25923, 29213 and BAA-42 were used as control strains. Bacterial strains were contacted with one of the above described compounds and MIC50, MIC90 and MICScope were determined.

In a further experiment the test system is Enterococcus (20). Described as above. In kind it is cell-based. The conditions noted are these: 20 Enterococcus clinical isolates. As to the method: as §6, §7, §8
Experiment [8] relates to Staphylococcus aureus MRSA strain (80). The description is as above. In kind it is cell-based. As to the method:
as §6, §7, §8

Experiment [9] has as its system Staphylococcus aureus MSSA strain (88). Described as above. Type of experiment: cell-based. The conditions noted are these: Staphylococcus aureus, MSSA. As to the method:
as §6, §7, §8

Experiment [10] has as its system Staphylococcus epidermidis MRSE strain (25). Described as above. Type of experiment: cell-based. The procedure: as §6, §7, §8
The subject of experiment [11] is Staphylococcus epidermidis MSSE strain (21). Described as above. In kind it is cell-based. The conditions noted are these: Staphylococcus epidermidis, 21 MSSE clinical isolates. As to the method: as §6, §7, §8
In experiment [12] the test system is Enterococcus faecalis ATCC 700802. Kind of experiment: microbe, parasite or virus in culture. To be noted: Enterococcus faecalis, ATCC700802. Type of experiment: cell-based.
The subject of experiment [13] is Staphylococcus aureus MRSA 02-18. Kind of experiment: microbe, parasite or virus in culture. Type of experiment: cell-based. To be noted: Staphylococcus aureus, MRSA.
Experiment [14] concerns Escherichia coli 02-1-65. Kind of experiment: MIC against challenge strain (Table 3). In kind it is cell-based. To be noted: 02165, read-out: MIC.
The subject of experiment [15] is Candida albicans ATCC 10231. Description: In vitro cell growth inhibition assay (OD595, filaments).
[16] abbreviates: 1st Time, i.v. treatment after one hour.
The mark [17] stands for this setting: 2nd Time (value in parentheses), i.v. treatment.
[18] abbreviates: Staphylococcus epidermidis, MRSE.

Where two headings read alike, the source gives them in different places.

Turning to `Cc1nnc(SCC2=C(C(=O)[O-])N3C(=O)[C@@H](NC(=O)Cn4cnnn4)[C@H]3SC2)s1.[Na+]` [Cephazoid, sodium Cephazoid], the median effective dose (ED50) is above 10 mg/kg in [1] (1st Time, mice, i.p. infection 8.0 × 10^6 cfu/ml, i.v. treatment after one hour); “(12.91) mg/kg” in experiment [1] (2nd Time (value in parentheses), mice, i.p. infection 8.0 × 10^6 cfu/ml, i.v. treatment); 11.82 mg/kg in [2] (1st Time, mice, i.p. infection 1.7 × 10^5 cfu/ml, i.v. treatment after one hour); “(>10) mg/kg” in [2] (2nd Time (value in parentheses), mice, i.p. infection 1.7 × 10^5 cfu/ml, i.v. treatment); 9.04 mg/kg in experiment [3] (1st Time, mice, i.p. infection 5.5 × 10^5 cfu/ml, i.v. treatment after one hour); “(8.78) mg/kg” in [3] (2nd Time (value in parentheses), mice, i.p. infection 5.5 × 10^5 cfu/ml, i.v. treatment). Moreover, the median effective dose (ED50) is reported as above 30.77 mg/kg in the experiment with Escherichia coli 02-1-65 [6] (setting [16]), “(>30.77) mg/kg” in the experiment on Escherichia coli 02-1-65 [6] (setting [17]), 29.03 mg/kg in experiment [7] (setting [16]) and “(11.20) mg/kg” in experiment [7] (setting [17]). Besides, the MIC in [4] (Staphylococcus aureus MRSA BAA-42) was 0.5 µg/mL; in experiment [5] it was 0.03 µg/mL.

Take `CC1(C)S[C@@H]2[C@H](NC(=O)[C@H](N)c3ccccc3)C(=O)N2[C@H]1C(=O)O` [Ampicillin, sodium ampicillin]: the MIC50 against Acenetobactor (20) was above 128 µg/mL; in the experiment on Enterococcus (20) (read-out: MIC50) it was 0.5 µg/mL; in experiment [8] (Staphylococcus aureus, MRSA) it was 16 µg/mL; in experiment [9], 0.25 µg/mL; in [10] (setting [18]) it was 16 µg/mL; in experiment [11] (read-out: MIC50), 0.03 µg/mL. Further, the MIC90 with Acenetobactor (20) was above 128 µg/mL; with Enterococcus (20) (read-out: MIC90), 16 µg/mL; in [8] (Staphylococcus aureus, MRSA), 32 µg/mL; in [9], 1 µg/mL; in [10] (setting [18]) it was 64 µg/mL; in experiment [11] (read-out: MIC90), 0.25 µg/mL. Besides, the MIC against Enterococcus (20) is 0.25 to 16 µg/mL; in [9] (read-out: MIC Scope), 0.015 to 0.25 µg/mL; in experiment [11], 0.015 to 0.25 µg/mL; in [12] it was 0.125 µg/mL; in experiment [4] (Staphylococcus aureus), 0.25 µg/mL; in [13] it was 8 µg/mL. For the same molecule, the MIC in experiment [5] (ATCC29213, read-out: MIC) was below 0.015 µg/mL; in the experiment with Escherichia coli 02-1-65 [14] it was above 128 µg/mL. For the same molecule, the “MIC Scope” value in [8] (80 MRSA clinical isolates) and in experiment [10] (25 MRSE clinical isolates) was 0.06˜64 mg/l throughout. The 50% effective dose (ED50) in experiment [1] (Enterococcus faecalis, ATCC700802) was 3 mg/kg; in experiment [1] (Enterococcus faecalis, ATCC700802, 1 h), 3.37 mg/kg; in [2] (Staphylococcus aureus, MRSA), above 20 mg/kg; in experiment [2] (Staphylococcus aureus, MRSA, 1 h) it was 32.7 mg/kg; in [3] (Staphylococcus aureus), 23.4 mg/kg; in experiment [3] (Staphylococcus aureus, 1 h), 25.2 mg/kg. Moreover, the 50% effective dose (ED50) in the experiment with Escherichia coli 02-1-65 [6] (Escherichia coli, 02165, 2nd Time (value in parentheses), i.v. treatment, read-out: ED50) is above 30.8 mg/kg; with Escherichia coli 02-1-65 [6] (Escherichia coli, 02165, 1 h, 1st Time, i.v. treatment after one hour, read-out: ED50), above 30.8 mg/kg; in [7] (Staphylococcus aureus, ATCC29213, 2nd Time (value in parentheses), i.v. treatment, read-out: ED50), 12.3 mg/kg; in [7] (Staphylococcus aureus, ATCC29213, 1 h, 1st Time, i.v. treatment after one hour, read-out: ED50) it was 14.2 mg/kg. In addition, the “effect on growth of Candida albicans” value in experiment [15] (Ph-CA 5 μg/ml, Ph-SA 5 μg/ml, ampicillin 50 μg/ml, amphotericin B 200 ng/ml, fluconazole 3 μg/ml) is recorded as “no effect on the growth”.

B1: Rev. Ph-CA: Candida albicans alpha mating pheromone at N-terminus (S1) of colicin Ia (protein)
chain: GFRLTNFGYFEPGMSDPVARGITNPGAESLGYDSDGHEIMAVASPIYVASNPPRVASPVFHGTPPAWSSFGNKTIWGGNEWVASPDSPTRSDIEKRDKEITAYKNTLSAQQKENENKRTEAGKRLSAAIAAREKDENTLKTLRAGNADAADITRQEFRLLQAELREYGFRTEIAGYDALRLHTESRMLFADADSLRISPREARSLIEQAEKRQKDAQNADKKAADMLAEYERRKGILDTRLSELEKNGGAALAVLDAQQARLLGQQTRNDRAISEARNKLSSVTESLNTARNALTRAEQQLTQQKNTPDGKTIVSPEKFPGRSSTNHSIVVSGDPRFAGTIKITTSAVIDNRANLNYLLSHSGLDYKRNILNDRNPVVTEDVEGDKKIYNAEVALAEWDKLRQRLLDARNKITSAESAVASNSARNNLSARTNEQKHANDALNALLKEKENIRNQLSGINQKIAEEKRKQDELKATKDAINFTTEFLKSVSEKYGAKAEQLAREMAGQAKGKKIRNVEEALKTYEKYRADINKKINAKDRAAIAAALESVKLSDISSNLNRFSRGLGYAGKFTSLADWITEFGKAVARGTENWRPLFVKTETIIAGNAATALVALALVFSILTGSALGIIGYGLLMAVTGALIDESLVEKANKFWGI
modifications: Candida albicans alpha mating pheromone attached to colicin
For B1, the “inhibition effect as compared to PMC-CA” value in experiment [15] (20 μg/ml) is on record as “about 30%”. The “antifungal effect against Candida albicans in vitro and in vivo” value in experiment [15] (general statement) is listed as “no effect”.
